Measured values: patent US12055547B2, “TMEM active test and uses thereof in diagnosis, prognosis and treatment of tumors” (Albert Einstein College of Medicine, priority 2015, dated 2024)

Tests used:
macrophages = assay: Macrophage depletion in PyMT tumors in the MAFIA mouse model; type: in vivo; details: vs vehicle
Source text: Summary Tumor cell intravasation at sites of transient vascular permeability associated with TMEM was studied using mouse mammary tumor virus—polyoma middle T antigen (MMTV-PyMT) autochthonous and implanted models of human patient-derived mammary carcinoma. Single cell resolution of cell activity at TMEM in live animals was achieved using extended time-lapse imaging on a custom-built two-laser multiphoton microscope. To investigate the role of macrophages in tumor cell intravasation and blood vessel permeability, the MAFIA mouse model was used to deplete macrophages. Observation of extravascular dextran, vascular junction proteins and protein expression in tissue was performed using immunofluorescence microscopy. Further investigation of the mechanism of macrophage-mediated tumor cell intravasation and blood vessel permeability at TMEM utilized anti-mouse-VEGFA inhibitory antibody and the ablation of Vegfa expression in monocytes using a myeloid-specific (Csf1r promoter), tamoxifen-inducible Cre expressing mouse strain was crossed with Vegfa^flox/flox mice with gene ablation induced with tamoxifen.
Immunofluorescence image analysis. […] The remaining extravascular dextran area, and blood vessel area were then measured. […]

[1] = tested on: Tie2 macrophage function in TMEM; assay: TMEM density and TMEM activity (IV-dextran/ZO-1 staining) in tumor after rebastinib; type: in vivo
Source text: FIG. 11A-11B. […] (B) Quantification of vascular permeability activity of tumor TMEM using vascular permeability marker IV-dextran/ZO-1 staining intensity (n=7 and 9; * , P=0.0177).
The relative activity of TMEM can be quantified in (e.g., FFPE) tissue sections in several ways, e.g.: • 1. as the ratio of IV-dextran (or other IV contrast agent) that has leaked from the blood vessel into the tissue at the time of Formaldehyde Fixation after IV injection of contrast agent in preparation for FFPE (measure of local vascular permeability) divided by ZO-1 or VE-Cad staining intensity at TMEM (FIG. 11). Higher dextran/ZO-1=more TMEM activity; • 2. as the ratio of ZO-1 or VE-Cad staining intensity at TMEM per area of blood vessel (CD31 staining area) (FIG. 12). Higher VE-Cad or ZO-1/CD31=less TMEM activity; • 3. as the absolute intensity of ZO-1 or VE-Cad staining intensity at TMEM sites (FIG. 10). Higher VE-Cad staining=less TMEM activity.
The activity status of TMEM (TMEM^Active) in patient tissue samples can be used to assess the efficacy of dissemination inhibitor drugs that inhibit TMEM activity. For example, observe the effects of the following dissemination inhibitors on TMEM^Active using the quantitation methods for TMEM activity described in #1-3 above as follows: • a. Rebastinib, the Tie2 inhibitor which blocks VEGF^Hi TMEM macrophage function, (FIG. 11); • b. […]

| Compound | blood vessel permeability (extravascular 155 kDa dextran-TMR) (macrophages; FIG. 5E) | tumor cell intravasation (circulating tumor cells) (macrophages; FIG. 5F) | TMEM density in 10 40× fields ([1]; FIG. 11A) | vascular permeability activity of tumor TMEM (IV-dextran/ZO-1 staining intensity) ([1]; FIG. 11B, n=7 and 9, P=0.0177) |
| --- | --- | --- | --- | --- |
| CC[C@H](C(=O)N1CCCC[C@H]1C(=O)O[C@H](CCc1ccc(OC)c(OC)c1)c1cccc(OCC(=O)NCC(CNC(=O)COc2cccc([C@@H](CCc3ccc(OC)c(OC)c3)OC(=O)[C@@H]3CCCCN3C(=O)[C@@H](CC)c3cc(OC)c(OC)c(OC)c3)c2)CN(C)C)c1)c1cc(OC)c(OC)c(OC)c1 [B/B homodimerizer] | reduces | reduces | – | – |
| CNC(=O)c1cc(Oc2ccc(NC(=O)Nc3cc(C(C)(C)C)nn3-c3ccc4ncccc4c3)c(F)c2)ccn1 [Rebastinib] | – | – | not significant | inhibits TMEM activity |
